For seven compounds, TGI results are on record in PubChem BioAssay (NCI).

Test systems include OVCAR-3 ovarian; RXF 393 renal; SNB-19 CNS; OVCAR-5 ovarian; EKVX NSCLC; OVCAR-4 ovarian; HCC-2998 colon; PC-3 prostate; SN12C renal; SK-MEL-28 melanoma; NCI-H23 lung; BT-549 breast; MDA-MB-435; T-47D breast; NCI/ADR-RES ovarian; SF-295 CNS; HT29 colon; TK-10 renal; MALME-3M melanoma.
Common to all, as to assay: NCI-60 cell line screen, 48 h

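Tested at 5 concentrations; 48 h exposure; 96-well plates; endpoints linearly interpolated, else capped at highest concentration. TGI marks complete inhibition of growth.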

Take `Cc1cc(C)nc(NS(=O)(=O)c2ccc(NC(=O)c3ccc4nc5ccccc5c(Nc5ccc(S(=O)(=O)Nc6nc(C)cc(C)n6)cc5)c4c3)cc2)n1`: the TGI with OVCAR-3 ovarian, in the assay with RXF 393 renal, in the assay on SNB-19 CNS, with OVCAR-5 ovarian, with EKVX NSCLC and in the assay with OVCAR-4 ovarian was over 100 µM in each case. The TGI is over 100 µM in the assay on HCC-2998 colon; over 100 µM with PC-3 prostate; over 100 µM in the assay on SN12C renal; over 100 µM in the assay with SK-MEL-28 melanoma; over 100 µM in the assay with NCI-H23 lung; 69.7 µM with BT-549 breast. The TGI with MDA-MB-435, in the assay with T-47D breast, in the assay on NCI/ADR-RES ovarian, in the assay with SF-295 CNS, in the assay with HT29 colon and in the assay with TK-10 renal was over 100 µM in each case. The TGI in the assay with MALME-3M melanoma is over 100 µM.

Regarding `Cc1ccc2c(c1)C/C(=C\c1ccccc1C(=O)O)C2=O`, the TGI with OVCAR-3 ovarian, in the assay on RXF 393 renal, in the assay with SNB-19 CNS, in the assay with OVCAR-5 ovarian, in the assay with EKVX NSCLC and in the assay with OVCAR-4 ovarian was over 100 µM throughout. Further, the TGI in the assay on HCC-2998 colon, in the assay with PC-3 prostate, in the assay with SN12C renal, in the assay on SK-MEL-28 melanoma, with NCI-H23 lung and in the assay on BT-549 breast was over 100 µM throughout. Also, the TGI in the assay on MDA-MB-435, in the assay with T-47D breast, in the assay with NCI/ADR-RES ovarian, in the assay on SF-295 CNS, in the assay with HT29 colon and in the assay with TK-10 renal was over 100 µM in each case. The same compound returned a TGI with MALME-3M melanoma of over 100 µM.

In the case of `COc1ccc(/C=C2\CC3C4CC=C5C[C@@H](O)CC[C@]5(C)C4CC[C@]3(C)C2=O)cc1OC` (stereo partly drawn), the TGI with OVCAR-3 ovarian is 51.9 µM; in the assay with RXF 393 renal it was over 100 µM; in the assay on SNB-19 CNS, over 100 µM; in the assay on OVCAR-5 ovarian, over 100 µM; in the assay with EKVX NSCLC it was over 100 µM; with OVCAR-4 ovarian it was over 100 µM. Also, the TGI with HCC-2998 colon, in the assay with PC-3 prostate, in the assay on SN12C renal, in the assay on SK-MEL-28 melanoma, in the assay on NCI-H23 lung and in the assay with BT-549 breast was over 100 µM each time. For the same compound, the TGI was over 100 µM with MDA-MB-435; over 100 µM in the assay with T-47D breast; over 100 µM in the assay on NCI/ADR-RES ovarian; 50.4 µM in the assay with SF-295 CNS; over 100 µM with HT29 colon; over 100 µM in the assay on TK-10 renal. The same compound gave a TGI in the assay on MALME-3M melanoma of over 100 µM.

Regarding `N#Cc1c(Nc2ccccc2)[n+]([O-])c2ccc(Cl)cc2[n+]1[O-]`, the TGI is 9.76 µM with OVCAR-3 ovarian; over 100 µM in the assay with RXF 393 renal; over 77.4 µM in the assay with SNB-19 CNS; over 100 µM in the assay on OVCAR-5 ovarian; over 32.9 µM with EKVX NSCLC; 4.17 µM in the assay on OVCAR-4 ovarian. Besides, the TGI with HCC-2998 colon is 15.2 µM; in the assay on PC-3 prostate it was over 100 µM; in the assay with SN12C renal it was over 100 µM; in the assay with SK-MEL-28 melanoma it was over 100 µM; in the assay on NCI-H23 lung it was 17.4 µM; in the assay on BT-549 breast it was 14.9 µM. In addition, the TGI was over 100 µM in the assay with MDA-MB-435; over 100 µM in the assay with T-47D breast; 8.15 µM with NCI/ADR-RES ovarian; over 74.3 µM with SF-295 CNS; 8.22 µM with HT29 colon; 49.2 µM with TK-10 renal. The same compound returned a TGI in the assay with MALME-3M melanoma of 26.9 µM.

As to `Cc1cn(C2CC(O)C(Cn3nncc3Cn3ccc(=O)[nH]c3=O)O2)c(=O)[nH]c1=O` (stereo not drawn), the TGI in the assay on OVCAR-3 ovarian, with RXF 393 renal, in the assay on SNB-19 CNS, in the assay with OVCAR-5 ovarian, in the assay on EKVX NSCLC and in the assay with OVCAR-4 ovarian was over 100 µM in each case. Also, the TGI in the assay on HCC-2998 colon, with PC-3 prostate, in the assay with SN12C renal, with SK-MEL-28 melanoma, with NCI-H23 lung and in the assay with BT-549 breast was over 100 µM in each case. For the same compound, the TGI in the assay with MDA-MB-435, in the assay on T-47D breast, with NCI/ADR-RES ovarian, with SF-295 CNS, with HT29 colon and in the assay with TK-10 renal was over 100 µM each time. The TGI in the assay with MALME-3M melanoma is over 100 µM.

`COc1cc(N(CCC#N)CCC#N)ccc1/C(N=Nc1cccc(C)c1)=N\NC(=O)c1ccc(C)cc1`: the TGI in the assay on OVCAR-3 ovarian, in the assay with RXF 393 renal, in the assay on SNB-19 CNS, in the assay with OVCAR-5 ovarian, with EKVX NSCLC and in the assay on OVCAR-4 ovarian was over 100 µM in each case. In addition, the TGI in the assay on HCC-2998 colon, with PC-3 prostate, with SN12C renal, in the assay with SK-MEL-28 melanoma, in the assay with NCI-H23 lung and with BT-549 breast was over 100 µM throughout. Also, the TGI in the assay on MDA-MB-435, with T-47D breast, with NCI/ADR-RES ovarian, in the assay with SF-295 CNS, with HT29 colon and in the assay on TK-10 renal was over 100 µM each time. The compound also showed a TGI with MALME-3M melanoma of over 100 µM.

Take `Nc1c(O)c(C(=O)O)cc2ccccc12`: the TGI was 94.5 µM in the assay on OVCAR-3 ovarian; over 100 µM in the assay on RXF 393 renal; over 100 µM in the assay with SNB-19 CNS; 41.2 µM in the assay with OVCAR-5 ovarian; over 100 µM in the assay on EKVX NSCLC; 48.9 µM in the assay with OVCAR-4 ovarian. The TGI in the assay on HCC-2998 colon is over 100 µM; in the assay on PC-3 prostate, over 100 µM; in the assay with SN12C renal, over 100 µM; in the assay with SK-MEL-28 melanoma, over 100 µM; with NCI-H23 lung, 65.3 µM; in the assay with BT-549 breast it was 60.3 µM. The TGI was 33.4 µM in the assay with MDA-MB-435; over 100 µM in the assay on T-47D breast; over 100 µM in the assay on NCI/ADR-RES ovarian; over 100 µM in the assay with SF-295 CNS; 31.8 µM with HT29 colon; over 100 µM in the assay with TK-10 renal. The compound further returned a TGI in the assay on MALME-3M melanoma of 29.6 µM.
